Test results reported in publication PMC11530130, “Peripherally restricted PICK1 inhibitor mPD5 ameliorates pain behaviors in murine inflammatory and neuropathic pain models” (JCI Insight, 2024).
“And” between values parts separate entries of the source, which are not always exact repeats. Identical values can stand only once.

What was measured:
[1] = Solubility in PBS by visual inspection
Procedure: (§1) SUPPORTING INFORMATION: Method Section.
(§2) Sex as a biological variable.
(§3) All peptides were ordered from WuXI AppTec (Shanghai, China) or TAG-Copenhagen […]
(§4) Assessment of solubility and stability of mPD5.
(§5) Solubility was determined by visual inspection of samples dissolved in increasing concentration in 10 mM PBS as judged by full transparency and monophasic appearance.
(§6) Stability was addressed by […] for four concentrations (2, 20, 50, and 200 µM), by leaving mPD5 in PBS at 5 °C and 25 °C for 30 days followed by HPLC-UV-MS.
(§7) Protein expression and purification.
(§8) Full length rat PICK1 (pET41) was, as described earlier (1), expressed in BL21-DE3-pLysS and grown at 37 °C, induced at OD600= 0.6 with 1 mM IPTG, and grown for 16 hours at 20 °C.
(§9) Cultures were harvested and re-suspended in 50 mM Tris, 125 mM NaCl, 2 mM DTT (Sigma), 1% Triton X-100 (Sigma), 20 µg/mL DNAse 1 and half a tablet of cOmplete protease inhibitor cocktail (Roche) pr. 1 L culture. The resuspended pellets were frozen at -80 °C for later purification. […] PICK1 was eluted on ice and concentration was measured on a NanoDrop 3000.
(§10) Fluorescence polarization binding. […]
(§11) binding surface 96 well plates (Sigma-Aldrich, Ref. no. 3686). The plates were incubated 20 min on ice and the fluorescence polarization was measured on an Omega POLARstar plate reader (BMG LABTECH) using excitation filter of 485 nm and long pass emission filter of 520 nm. […]

[2] = target: T1, recombinant full-length PICK1 (Rattus norvegicus, UniProt Q9EP80); test: SEC of recombinant PICK1 in absence or presence of mPD5; format: binding; conditions: PICK1 40 μM with mPD5 10 μM; from 10.9 mL to 2 peaks at 8 mL and 9 mL
T1 construct: Full length rat PICK1 (pET41) was, as described earlier (1), expressed in BL21-DE3-pLysS; inferred from the pET41 vector and the glutathione-Sepharose capture) (N, cleaved yes); made in house; host or cells: E. coli BL21-DE3-pLysS
T1 sequence (Q9EP80 whole entry): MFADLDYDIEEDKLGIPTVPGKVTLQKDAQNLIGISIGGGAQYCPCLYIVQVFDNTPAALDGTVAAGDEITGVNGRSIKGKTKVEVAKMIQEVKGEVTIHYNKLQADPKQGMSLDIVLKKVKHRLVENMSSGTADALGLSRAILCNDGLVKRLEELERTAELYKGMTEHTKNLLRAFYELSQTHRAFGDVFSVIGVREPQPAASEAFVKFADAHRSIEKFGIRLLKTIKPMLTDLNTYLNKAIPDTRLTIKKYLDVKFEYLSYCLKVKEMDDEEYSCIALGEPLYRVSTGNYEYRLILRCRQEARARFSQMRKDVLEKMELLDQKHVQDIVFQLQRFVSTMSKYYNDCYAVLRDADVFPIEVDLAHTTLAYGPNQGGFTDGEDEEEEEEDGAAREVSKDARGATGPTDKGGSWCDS
Procedure: as §1, §2, §3, §4, §5, §6, §7, §8, §9, §10, §11

[3] = test system: naive mice; test: Open field locomotion; format: in vivo, mouse; design: total locomotion in open field, individual mice: unit not given here; conditions: for open field locomotion per 5min bin (Fig S8A): individual animals, listed as myr
Procedure: Concentration 10 µmol/kg: Wild type mice were habituated to the experimental room for a minimum of 60 min before initiation of the experiment. Female and male mice were run on separate days. Mice were injected s.c. with 10 μmol/kg mPD5 or sterile PBS directly before being placed in open field boxes (40 cm x 40 cm x 80 cm) for 2.5 hours with up to four mice in boxes at any one time. A video camera placed above the open field recorded the animals’ behaviour and Ethovision XT 13 (Noldus) was used to track the distance travelled by the […]
Concentration 30 + 50 µmol/kg: Animals were habituated to the experimental room for a minimum of 60 min before initiation of the experiment. At initiation of experiment, the mice (all male) were injected subcutaneously (s.c.) with mPD5 (30 or 50 μmol/kg, pH adjusted to approximately 7 with 5 M NaOH) or 0.9 % saline (B.Braun, Germany) and left in their home cage for 60 min. After exactly one hour, the mice were placed in an open field (40 cm x 40 cm x 80 cm) for 60 min. A video camera placed above the open field recorded the animals’ […]
animal. The experiment was run in cohort with Figure 2B+C of (9)). […]

CCCCCCCCCCCCCC(=O)N(CCOCCOCCC(=O)N[C@@H](Cc1c[nH]cn1)C(=O)N[C@@H](Cc1c[nH]c2ccccc12)C(=O)N[C@@H](CC(C)C)C(=O)N[C@@H](CCCCN)C(=O)N[C@H](C(=O)O)C(C)C)CCOCCOCCC(=O)N[C@@H](Cc1c[nH]cn1)C(=O)N[C@@H](Cc1c[nH]c2ccccc12)C(=O)N[C@@H](CC(C)C)C(=O)N[C@@H](CCCCN)C(=O)N[C@H](C(=O)O)C(C)C [mPD5, myristoyl-NPEG4-(HWLKV)2]
solubility [1]: ≥ 250000 µg/mL and ~130000 µM
shift of PICK1 SEC elution (higher-order complexes) [2]: distinct shift in the peak elution volume of PICK1
overall locomotion in open field ([3]; both sexes, s.c. 10 μmol/kg, 150 minutes): overall locomotion was the same between groups
open field locomotion per 5min bin (Fig S8A) ([3]; myr 30 sc, time bin 5): 9.792 and 20.2101 and 12.2703 and 19.016 and 30.6965 and 16.9458
open field locomotion per 5min bin (Fig S8A) ([3]; myr 30 sc, time bin 10): 7.961 and 14.7148 and 7.884 and 18.3273
open field locomotion per 5min bin (Fig S8A) ([3]; myr 30 sc, time bin 35): 5.715 and 10.7688 and 1.1088 and 12.4123 and 20.664 and 5.688
open field locomotion per 5min bin (Fig S8A) ([3]; myr 30 sc, time bin 40): 11.1707 and 7.0291 and 1.7211 and 14.3893 and 18.0978 and 1.491
open field locomotion per 5min bin (Fig S8A) ([3]; myr 30 sc, time bin 45): 1.78 and 8.087 and 5.349 and 15.4878 and 14.3776 and 5.135
open field locomotion per 5min bin (Fig S8A) ([3]; myr 30 sc, time bin 50): 0.4107 and 5.0774 and 0.9705 and 10.9758 and 18.1434 and 3.971
open field locomotion per 5min bin (Fig S8A) ([3]; myr 30 sc, time bin 55): 2.375 and 2.374 and 0.2143 and 12.0295 and 18.4127 and 1.9358
open field locomotion per 5min bin (Fig S8A) ([3]; myr 30 sc, time bin 60): 5.982 and 3.075 and 0.4734 and 12.4806 and 21.7634 and 4.464
open field locomotion per 5min bin (Fig S8A) ([3]; myr 50 sc, time bin 5): 18.0979 and 18.5029 and 7.528 and 18.9529 and 21.6506 and 14.4427 and 14.0357
open field locomotion per 5min bin (Fig S8A) ([3]; myr 50 sc, time bin 10): 7.558 and 10.3984 and 2.952 and 12.1538 and 11.8366
open field locomotion per 5min bin (Fig S8A) ([3]; myr 50 sc, time bin 35): 4.238 and 1.175 and 0.5656 and 5.236 and 7.164 and 13.3118 and 5.291
open field locomotion per 5min bin (Fig S8A) ([3]; myr 50 sc, time bin 40): 1.639 and 8.588 and 1.093 and 4.076 and 7.194 and 14.7431 and 4.194
open field locomotion per 5min bin (Fig S8A) ([3]; myr 50 sc, time bin 45): 1.4137 and 3.876 and 1.161 and 4.905 and 5.068 and 11.8464 and 7.804
open field locomotion per 5min bin (Fig S8A) ([3]; myr 50 sc, time bin 50): 0.9835 and 5.464 and 0.5467 and 1.258 and 0.6955 and 8.558 and 8.666
open field locomotion per 5min bin (Fig S8A) ([3]; myr 50 sc, time bin 55): 1.533 and 3.196 and 1.532 and 1.249 and 4.7524 and 13.5785 and 1.184
open field locomotion per 5min bin (Fig S8A) ([3]; myr 50 sc, time bin 60): 1.079 and 3.0668 and 0.6715 and 10.3299 and 7.512 and 5.91 and 5.742
total locomotion in open field, individual mice ([3]; s.c. 10 μmol/kg, 150 minutes): 177.609 and 107.816 and 106.645 and 245.588 and 278.41 and 220.659 and 185.74 and 353.332 and 277.158 and 380.649 and 207.835
locomotor activity in open field ([3]; s.c. 30 or 50 μmol/kg): did not show any significant effect on locomotor activity
